Laboratory results from ChEMBL document CHEMBL3763070, “Development of CINPA1 analogs as novel and potent inverse agonists of constitutive androstane receptor” (Eur J Med Chem, 2016).

Biological target: T1, Nuclear receptor subfamily 1 group I member 3 (Homo sapiens, UniProt Q14994)
T1 sequence (Q14994 whole entry): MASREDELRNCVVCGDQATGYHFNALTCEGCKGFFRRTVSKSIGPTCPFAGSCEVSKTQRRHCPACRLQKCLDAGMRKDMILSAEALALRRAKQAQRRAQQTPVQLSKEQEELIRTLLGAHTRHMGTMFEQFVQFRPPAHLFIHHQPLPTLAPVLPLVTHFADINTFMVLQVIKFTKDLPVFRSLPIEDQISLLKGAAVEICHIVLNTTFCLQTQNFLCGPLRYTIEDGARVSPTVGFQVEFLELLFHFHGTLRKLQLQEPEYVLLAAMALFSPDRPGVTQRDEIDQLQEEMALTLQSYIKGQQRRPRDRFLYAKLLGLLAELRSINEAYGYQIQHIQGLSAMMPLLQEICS
Assay: Inverse agonist activity at GST tagged-human CAR-LBD assessed as reduction in fluorescein-PGC1 alpha coactivator recruitment after 1 hr by TR-FRET assay

| Structure (SMILES) | IC50 [µM] |
| --- | --- |
| CCOC(=O)Nc1ccc2c(c1)N(C(=O)CN)c1ccccc1CC2 | > 70 |
| CC(C)OC(=O)Nc1ccc2c(c1)N(C(=O)COC1CCCC1)c1ccccc1CC2 | 0.0195 |
| CC(C)OCC(=O)N1c2ccccc2CCc2ccc(NC(=O)OC(C)(C)C)cc21 | 0.116 |
| O=C(Nc1ccc2c(c1)N(C(=O)Cn1cccc1)c1ccccc1CC2)OC1CCCCC1 | 0.0117 |
| CCCN(CCC)CC(=O)N1c2ccccc2CCc2ccc(NC(=O)OC(C)C)cc21 | 0.116 |
| CCN(CC)CC(=O)N1c2ccccc2CCc2ccc(NC(=O)OC(C)(C)C)cc21 | 1.03 |
| CC(C)(C)OC(=O)Nc1ccc2c(c1)N(C(=O)Cn1cccc1)c1ccccc1CC2 | 0.0319 |
| CCN(CC)CC(=O)N1c2ccccc2CCc2ccc(NC(=O)OC(C)C)cc21 | 0.68 |
| CC(C)(C)OC(=O)Nc1ccc2c(c1)N(C(=O)CN1CCCCC1)c1ccccc1CC2 | 0.216 |
